Literature values, collected in patent US20080108542A1, “Perfume Compositions” (priority 2005, published 2008).

Conditions: 25° C.; data from literature or estimation software

| Compound | SVP (saturated vapour pressure) class |
| --- | --- |
| CCOC(=O)C1=C(C)C=CCC1(C)C [ETHYL 2,6,6-TRIMETHYLCYCLOHEXA-1,3-DIENE-1-CARBOXYLATE] | & (SVPs in the range of 25 to 125 micron Hg) |
| CCCCC1OC(C)CC(C)(C)O1 (centres unmarked) [2-BUTYL-4,4,6-TRIMETHYL-1,3-DIOXAN] | && (SVPs greater than 125 micron Hg) |
| CC1=CC(C)C(C=O)CC1 (centres unmarked) [2,4-DIMETHYL-3-CYCLOHEXENE-1-CARBOXALDEHYDE] | && (SVPs greater than 125 micron Hg) |
| COC1CC2CC1C1CC=CC21 (centres unmarked) [8-METHOXY-TRICYCLO[5.2.1.0{2,6}]DEC-3-ENE] | && (SVPs greater than 125 micron Hg) |
| CC(=O)OC1CCC(C(C)(C)C)CC1 (centres unmarked) [PARA TERT.BUTYL CYCLOHEXYL ACETATE] | & (SVPs in the range of 25 to 125 micron Hg) |
| C=CCOC(=O)COCC(C)CC (centres unmarked) [2-METHYLBUTYLOXYACETIC ACID, 2-PROPENYL ESTER] | & (SVPs in the range of 25 to 125 micron Hg) |
| CCCCC/C=C/CCC=O [TRANS-4-DECENAL] | && (SVPs greater than 125 micron Hg) |
| CCCCCCCCCC(C)C=O (centres unmarked) [2-METHYLUNDECANAL] | & (SVPs in the range of 25 to 125 micron Hg) |
| CC/C=C/CC/C=C/C#N [(2E,6E)-NONA-2,6-DIENENITRILE] | & (SVPs in the range of 25 to 125 micron Hg) |
| CCCCCCCC1CCCO1 (centres unmarked) [2-N-HEPTYLTETRAHYDROFURAN] | && (SVPs greater than 125 micron Hg) |
| CC(C)CC1CCCC(C)(O)C1 (centres unmarked) [1-METHYL-3-(2-METHYLPROPYL)CYCLOHEXANOL] | & (SVPs in the range of 25 to 125 micron Hg) |
| CCC(C)(O)CCCC(C)C (centres unmarked) [TETRAHYDROLINALOL] | && (SVPs greater than 125 micron Hg) |
| CC1=CCC(C(C)(C)O)CC1 (stereo not drawn) [ALPHA-TERPINEOL] | & (SVPs in the range of 25 to 125 micron Hg) |
| CCCCCCC1CCCC1=O (centres unmarked) [2-HEXYL-CYCLOPENTANONE] | & (SVPs in the range of 25 to 125 micron Hg) |
